Our source for the pest or weed control values is patent US20180002319A1, “MACROCYCLIC PICOLINAMIDE COMPOUNDS WITH FUNGICIDAL ACTIVITY” (DOW AGROSCIENCES LLC, priority 2014, published 2018).

The test system of test [1] is Zymoseptoria tritici. The experiment in a line: Leaf Blotch of Wheat (SEPTTR) fungicidal activity. In kind it is in vivo. The note with it: wheat leaf blotch; for pest or weed control at 121.5 g/ha: Low Volume application, 121.5 g/H; for pest or weed control at 100 ppm: High Volume application. The procedure, abridged:
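Wheat seedlings (Yuma, first leaf emerged) were sprayed to run-off with compound in acetone/water containing Triton X-100 and inoculated with Z. tritici spores before or after treatment. Percent disease control comes from 0–100% severity on treated versus untreated plants.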

Test [2] has as its system Puccinia triticina. In words: Wheat Brown Rust (PUCCRT) fungicidal activity. In kind it is in vivo. The note with it: for pest or weed control at 121.5 g/ha: Low Volume application, 121.5 g/H; for pest or weed control at 100 ppm: High Volume application. The procedure, abridged:
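Disease severity (0–100%) on first leaves compared with untreated plants gives percent control. Plants (wheat var. Yuma) received spore inoculum before or after run-off spraying with compound in acetone/Triton X-100 water, held overnight at 22° C, 100% RH, then in a 24° C greenhouse.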

Where [3] appears, read: 24 h, 1 day protectant, read-out: SEPTTR disease control, 1DP (1 Day Protectant).
The mark [4] stands for this setting: 72 h, 3 day curative, read-out: SEPTTR disease control, 3DC (3 Day Curative).
[5] abbreviates: 24 h, 1 day protectant, read-out: PUCCRT disease control, 1DP (1 Day Protectant).
[6] abbreviates: 72 h, 3 day curative, read-out: PUCCRT disease control, 3DC (3 Day Curative).

Where two headings read alike, the source gives them in different places.

Consider `COc1ccnc(C(=O)N[C@H]2COCC[C@H](Cc3ccc(F)cc3)[C@@H](Oc3ccccc3)[C@H](C)OC2=O)c1OCOC(=O)C(C)C` [Compound 73], for which the pest or weed control at 121.5 g/ha in test [1] (setting [3]), in test [1] (setting [4]), in test [2] (setting [5]) and in test [2] (setting [6]) was greater than 80% each time.
Turning to `CCCO[C@@H]1[C@@H](CC2CCCC2)CCCC[C@H](NC(=O)c2nccc(OC)c2OC(C)=O)C(=O)O[C@H]1C` [Compound 58], the pest or weed control at 121.5 g/ha in test [1] (setting [3]) was less than 80%; in test [1] (setting [4]) it was less than 80%; in test [2] (setting [5]), greater than 80%; in test [2] (setting [6]), less than 80%.
Regarding `COc1ccnc(C(=O)N[C@H]2COCC[C@H](Cc3ccc(F)cc3)[C@@H](Oc3ccccc3)[C@H](C)OC2=O)c1OCOC(C)=O` [Compound 72], the pest or weed control at 121.5 g/ha in test [1] (setting [3]), in test [1] (setting [4]), in test [2] (setting [5]) and in test [2] (setting [6]) was greater than 80% each time.
Take `COc1ccnc(C(=O)N[C@H]2COCC[C@H](Cc3ccc(F)cc3)[C@@H](OC(=O)C(C)C)[C@H](C)OC2=O)c1OC(C)=O` [Compound 75]: the pest or weed control at 121.5 g/ha is greater than 80% in test [1] (setting [3]), less than 80% in test [1] (setting [4]), greater than 80% in test [2] (setting [5]) and greater than 80% in test [2] (setting [6]).
Consider `COc1ccnc(C(=O)N[C@H]2CCCC[C@H](OCC(C)C)[C@@H](Oc3ccccc3)[C@H](C)OC2=O)c1OCOC(C)=O` [Compound 13], for which the pest or weed control at 100 ppm in test [1] (setting [3]), in test [1] (setting [4]), in test [2] (setting [5]) and in test [2] (setting [6]) was greater than 80% throughout. The pest or weed control at 121.5 g/ha in test [1] (setting [3]), in test [1] (setting [4]), in test [2] (setting [5]) and in test [2] (setting [6]) was greater than 80% each time.
`CC[C@H]1CCOC[C@H](NC(=O)c2nccc(OC)c2OCOC(C)=O)C(=O)O[C@@H](C)[C@@H]1OC(=O)C1CC1` [Compound 79]: the pest or weed control at 121.5 g/ha in test [1] (setting [3]), in test [2] (setting [5]) and in test [2] (setting [6]) was greater than 80% throughout.
`CCCCCO[C@H]1[C@H](C)OC(=O)[C@@H](NC(=O)c2nccc(OC)c2O)CCCC[C@@H]1Oc1ccccc1` [Compound 96]: the pest or weed control at 100 ppm in test [1] (setting [3]) was less than 80%; in test [1] (setting [4]) it was less than 80%; in test [2] (setting [5]), greater than 80%; in test [2] (setting [6]), less than 80%.
With `COc1ccnc(C(=O)N[C@H]2CCCC[C@H](OCc3ccccc3)[C@@H](OCc3ccccc3)[C@H](C)OC2=O)c1O` [Compound 88], the pest or weed control at 100 ppm in test [1] (setting [3]) was greater than 80%; in test [1] (setting [4]), less than 80%; in test [2] (setting [5]), greater than 80%.
Take `CCC[C@H]1CCCC[C@H](NC(=O)c2nccc(OC)c2OCOC(C)=O)C(=O)O[C@@H](C)[C@@H]1OC(=O)C(C)C` [Compound 31]: the pest or weed control at 121.5 g/ha in test [1] (setting [3]) is less than 80%; in test [1] (setting [4]), less than 80%; in test [2] (setting [5]), greater than 80%; in test [2] (setting [6]) it was less than 80%.
As for `C=CCO[C@@H]1[C@@H](CC2CCCC2)CCCC[C@H](NC(=O)c2nccc(OC)c2O)C(=O)O[C@H]1C` [Compound 122], the pest or weed control at 100 ppm in test [1] (setting [3]), in test [1] (setting [4]) and in test [2] (setting [5]) was less than 80% in each case.
Turning to `COc1ccnc(C(=O)N[C@H]2CCCC[C@@H]3OC(C)(C)O[C@H]3[C@H](C)OC2=O)c1O` [Compound 104], the pest or weed control at 100 ppm is less than 80% in test [1] (setting [3]), less than 80% in test [1] (setting [4]), greater than 80% in test [2] (setting [5]) and greater than 80% in test [2] (setting [6]).
Turning to `CCOCC(=O)OCOc1c(OC)ccnc1C(=O)N[C@H]1CCCC[C@H](CC2CCCC2)[C@@H](OC(=O)C(C)C)[C@H](C)OC1=O` [Compound 55], the pest or weed control at 121.5 g/ha in test [1] (setting [3]) is less than 80%; in test [1] (setting [4]), less than 80%; in test [2] (setting [5]), greater than 80%; in test [2] (setting [6]) it was less than 80%.
Regarding `COc1ccnc(C(=O)N[C@H]2CCCC[C@H](OC)[C@@H](OCC(C)C)[C@H](C)OC2=O)c1OC(C)=O` [Compound 28], the pest or weed control at 121.5 g/ha in test [1] (setting [3]) was less than 80%; in test [1] (setting [4]), greater than 80%; in test [2] (setting [5]), greater than 80%; in test [2] (setting [6]) it was greater than 80%.
As to `COc1ccnc(C(=O)N[C@H]2CCCC[C@H](OCc3ccccc3)[C@@H](OCc3ccccc3)[C@H](C)OC2=O)c1OCOC(C)=O` [Compound 8], the pest or weed control at 100 ppm is greater than 80% in test [1] (setting [3]), less than 80% in test [1] (setting [4]), greater than 80% in test [2] (setting [5]) and greater than 80% in test [2] (setting [6]). The pest or weed control at 121.5 g/ha in test [1] (setting [3]), in test [1] (setting [4]), in test [2] (setting [5]) and in test [2] (setting [6]) was greater than 80% throughout.
As for `COc1ccnc(C(=O)N[C@H]2CCOC[C@H](OC(=O)C(C)C)[C@@H](Oc3ccccc3)[C@H](C)OC2=O)c1O` [Compound 117], the pest or weed control at 100 ppm in test [1] (setting [3]) was greater than 80%; in test [1] (setting [4]), less than 80%; in test [2] (setting [5]), less than 80%.
Take `COc1ccnc(C(=O)N[C@H]2CCOC[C@H](OCC(C)C)[C@@H](Oc3ccccc3)[C@H](C)OC2=O)c1O` [Compound 118]: the pest or weed control at 100 ppm is greater than 80% in test [1] (setting [3]), greater than 80% in test [2] (setting [5]) and less than 80% in test [2] (setting [6]).
In the case of `COc1ccnc(C(=O)N[C@H]2CCCC[C@H](OC3CCCC3)[C@@H](OC)[C@H](C)OC2=O)c1O` [Compound 108], the pest or weed control at 100 ppm was less than 80% in test [1] (setting [3]), less than 80% in test [1] (setting [4]), less than 80% in test [2] (setting [5]) and greater than 80% in test [2] (setting [6]).
Regarding `CCCOC(=O)O[C@H]1CCCC[C@H](NC(=O)c2nccc(OC)c2O)C(=O)O[C@@H](C)[C@@H]1OCC(C)C` [Compound 111], the pest or weed control at 100 ppm in test [1] (setting [3]) was less than 80%; in test [1] (setting [4]), greater than 80%; in test [2] (setting [5]), less than 80%; in test [2] (setting [6]), less than 80%.
For `CC[C@H]1CCOC[C@H](NC(=O)c2nccc(OC)c2OC(C)=O)C(=O)O[C@@H](C)[C@@H]1OC(=O)c1ccccc1` [Compound 80], the pest or weed control at 121.5 g/ha in test [1] (setting [3]) is greater than 80%; in test [1] (setting [4]), less than 80%; in test [2] (setting [5]) it was greater than 80%; in test [2] (setting [6]) it was greater than 80%.
Turning to `COc1ccnc(C(=O)N[C@H]2CCCC[C@H](CC3CCCC3)[C@@H](OC(=O)C(C)C)[C@H](C)OC2=O)c1O` [Compound 123], the pest or weed control at 100 ppm in test [1] (setting [4]) and in test [2] (setting [5]) was less than 80% throughout.
For `CCC[C@H]1CCCC[C@H](NC(=O)c2nccc(OC)c2O)C(=O)O[C@@H](C)[C@@H]1OC(=O)C(C)C` [Compound 103], the pest or weed control at 100 ppm in test [1] (setting [3]) is less than 80%; in test [2] (setting [5]), greater than 80%; in test [2] (setting [6]), less than 80%.
Take `COc1ccc(C[C@H]2CCOC[C@H](NC(=O)c3nccc(OC)c3OCOC(=O)C(C)C)C(=O)O[C@@H](C)[C@@H]2Oc2ccccc2)cc1` [Compound 67, ((4-methoxy-2-(((3S,8S,9R,10S)-8-(4-methoxybenzyl)-10-methyl-2-oxo-9-phenoxy-1,5-dioxecan-3-yl)carbamoyl)pyridin-3-yl)oxy)methyl isobutyrate]: the pest or weed control at 121.5 g/ha is greater than 80% in test [1] (setting [3]), less than 80% in test [1] (setting [4]), greater than 80% in test [2] (setting [5]) and less than 80% in test [2] (setting [6]).
In the case of `CCCCCO[C@H]1[C@H](C)OC(=O)[C@@H](NC(=O)c2nccc(OC)c2OCOC(C)=O)CCCC[C@@H]1OC(=O)c1ccccc1` [Compound 15], the pest or weed control at 100 ppm in test [1] (setting [3]), in test [1] (setting [4]), in test [2] (setting [5]) and in test [2] (setting [6]) was greater than 80% in each case. The pest or weed control at 121.5 g/ha was greater than 80% in test [1] (setting [3]), greater than 80% in test [1] (setting [4]), greater than 80% in test [2] (setting [5]) and less than 80% in test [2] (setting [6]).
On to `COc1ccnc(C(=O)N[C@H]2CCOC[C@H](Oc3ccccc3)[C@@H](OCC(C)C)[C@H](C)OC2=O)c1OCOC(C)=O` [Compound 46], for which the pest or weed control at 121.5 g/ha in test [1] (setting [3]) was greater than 80%; in test [1] (setting [4]) it was less than 80%; in test [2] (setting [5]), greater than 80%; in test [2] (setting [6]) it was less than 80%.
With `COc1ccnc(C(=O)N[C@H]2CCCC[C@H](OC)[C@@H](Oc3ccccc3)[C@H](C)OC2=O)c1O` [Compound 91], the pest or weed control at 100 ppm in test [1] (setting [3]), in test [1] (setting [4]), in test [2] (setting [5]) and in test [2] (setting [6]) was greater than 80% each time.
